Test results from article PMC12030706, “Novel ^177Lu-Labeled [Thz^14]Bombesin(6–14) Derivatives with Low Pancreas Accumulation for Targeting Gastrin-Releasing Peptide Receptor-Expressing Cancer” (Pharmaceuticals, 2025).

Tests used:
[1] = Ex vivo biodistribution in PC-3 tumor-bearing mice; conditions: mouse; for tissue uptake at 24 h: 24 h post-injection; for tissue uptake at 72 h: 72 h post-injection; for tissue uptake at 120 h: 120 h post-injection; for tissue uptake at 4 h: 4 h post-injection
Protocol: (§1) SPECT/CT imaging experiments were performed using an MILabs (Houten, The Netherlands) U-SPECT-II/CT scanner with a custom-made ultra-high-sensitivity big mouse collimator (2 mm pinhole size) following previously reported procedures. […] Male NOD.Cg-Rag1^tm1Mom Il2rg^tm1Wjl/SzJ (NRG) mice were used in these experiments because of their immunodeficient characteristics and excellent radiation tolerance. Mice were anaesthetized and subcutaneously implanted with 5 × 10^6 PC-3 prostate cancer cells (100 µL; 1:1 PBS/Matrigel) behind the left shoulder. SPECT/CT imaging and biodistribution studies were performed once the tumors reached a diameter of 5–8 mm, typically after approximately 4 weeks of growth.
(§2) For ex vivo biodistribution studies, the mice were injected with ~2–6 MBq of the radioligand. […] Blocking study was conducted at 1 h post-injection via co-injection of the radioligand with 100 μg of [D-Phe^6,Leu-NHEt^13,des-Met^14]Bombesin(6–14). Organs/tissues of interested were collected, weighed, and measured using an automatic gamma counter.

PC-3 tumor-bearing mice = test: Ex vivo biodistribution in PC-3 tumor-bearing mice
Protocol: as §1, §2

[2] = large intestine, Uptake in large intestine
[3] = small intestine, Uptake in small intestine
[4] = 1 h post-injection, 100 µg [D-Phe6,Leu-NHEt13,des-Met14]Bombesin(6–14)

## CC(C)C[C@@H](CN1CSC[C@H]1C(N)=O)NC(=O)[C@H](Cc1cnc[nH]1)NC(=O)CN(C)C(=O)[C@@H](NC(=O)[C@H](C)NC(=O)[C@H](Cc1c[nH]c2ccccc12)NC(=O)[C@H](CCC(N)=O)NC(=O)[C@@H](Cc1ccccc1)NC(=O)CN1CCC(NC(=O)CN2CCN(CC(=O)O)CCN(CC(=O)O)CCN(CC(=O)O)CC2)CC1)C(C)C [[^177Lu]Lu-TacsBOMB5, metal not drawn]
[1]; kidneys, Uptake in kidneys
  tissue uptake at 24 h: 1.38 ± 0.18 %ID/g
  tissue uptake at 72 h: 0.6 ± 0.07 %ID/g
  tissue uptake at 120 h: 0.39 ± 0.11 %ID/g
[1]; large intestine, 100 ug, Uptake in large intestine, 1 h blocked (co-injected with 100 µg [D-Phe6,Leu-NHEt13,des-Met14]Bombesin(6-14))
  tissue uptake at 1 h: 0.13 ± 0.04 %ID/g
[1]; large intestine, Uptake in large intestine, 1 h post-injection
  tissue uptake at 1 h: 0.31 ± 0.09 %ID/g
[1]; [2]
  tissue uptake at 4 h: 0.42 ± 0.09 %ID/g
  tissue uptake at 24 h: 0.42 ± 0.25 %ID/g
[1]; liver, 100 ug, Uptake in liver, 1 h blocked (co-injected with 100 µg [D-Phe6,Leu-NHEt13,des-Met14]Bombesin(6-14))
  tissue uptake at 1 h: 0.29 ± 0.05 %ID/g
[1]; liver, Uptake in liver, 1 h post-injection
  tissue uptake at 1 h: 0.67 ± 0.07 %ID/g
[1]; liver, Uptake in liver
  tissue uptake at 4 h: 0.54 ± 0.04 %ID/g
  tissue uptake at 24 h: 0.29 ± 0.02 %ID/g
  tissue uptake at 120 h: 0.16 ± 0.07 %ID/g
[1]; lungs, 100 ug, Uptake in lungs, 1 h blocked (co-injected with 100 µg [D-Phe6,Leu-NHEt13,des-Met14]Bombesin(6-14))
  tissue uptake at 1 h: 0.37 ± 0.04 %ID/g
[1]; lungs, Uptake in lungs, 1 h post-injection
  tissue uptake at 1 h: 2.2 ± 0.93 %ID/g
[1]; lungs, Uptake in lungs
  tissue uptake at 4 h: 1.45 ± 0.34 %ID/g
  tissue uptake at 24 h: 0.25 ± 0.03 %ID/g
  tissue uptake at 72 h: 0.13 ± 0.01 %ID/g
  tissue uptake at 120 h: 0.07 ± 0.03 %ID/g
[1]; muscle, 100 ug, Uptake in muscle, 1 h blocked (co-injected with 100 µg [D-Phe6,Leu-NHEt13,des-Met14]Bombesin(6-14))
  tissue uptake at 1 h: 0.13 ± 0.03 %ID/g
[1]; muscle, Uptake in muscle, 1 h post-injection
  tissue uptake at 1 h: 0.22 ± 0.01 %ID/g
[1]; muscle, Uptake in muscle
  tissue uptake at 72 h: 0.02 %ID/g
  tissue uptake at 120 h: 0.01 %ID/g
[1]; pancreas, 100 ug, Uptake in pancreas, 1 h blocked (co-injected with 100 µg [D-Phe6,Leu-NHEt13,des-Met14]Bombesin(6-14))
  tissue uptake at 1 h: 0.59 ± 0.11 %ID/g
[1]; pancreas, Uptake in pancreas, 1 h post-injection
  tissue uptake at 1 h: 1.08 ± 0.22 %ID/g
[1]; pancreas, Uptake in pancreas
  tissue uptake at 4 h: 0.21 ± 0.01 %ID/g
  tissue uptake at 72 h: 0.04 ± 0.01 %ID/g
  tissue uptake at 120 h: 0.02 %ID/g
[1]; small intestine, 100 ug, Uptake in small intestine, 1 h blocked (co-injected with 100 µg [D-Phe6,Leu-NHEt13,des-Met14]Bombesin(6-14))
  tissue uptake at 1 h: 0.26 ± 0.04 %ID/g
[1]; small intestine, Uptake in small intestine, 1 h post-injection
  tissue uptake at 1 h: 0.6 ± 0.16 %ID/g
[1]; [3]
  tissue uptake at 4 h: 0.19 ± 0.05 %ID/g
  tissue uptake at 24 h: 0.09 ± 0.03 %ID/g
  tissue uptake at 120 h: 0.02 %ID/g
[1]; spleen, 100 ug, Uptake in spleen, 1 h blocked (co-injected with 100 µg [D-Phe6,Leu-NHEt13,des-Met14]Bombesin(6-14))
  tissue uptake at 1 h: 0.15 ± 0.02 %ID/g
[1]; spleen, Uptake in spleen, 1 h post-injection
  tissue uptake at 1 h: 0.31 ± 0.03 %ID/g
[1]; spleen, Uptake in spleen
  tissue uptake at 24 h: 0.16 ± 0.03 %ID/g
  tissue uptake at 72 h: 0.18 ± 0.05 %ID/g
  tissue uptake at 120 h: 0.14 ± 0.06 %ID/g
[1]; stomach, 100 ug, Uptake in stomach, 1 h blocked (co-injected with 100 µg [D-Phe6,Leu-NHEt13,des-Met14]Bombesin(6-14))
  tissue uptake at 1 h: 0.06 ± 0.01 %ID/g
[1]; stomach, Uptake in stomach
  tissue uptake at 24 h: 0.27 ± 0.16 %ID/g
  tissue uptake at 120 h: 0.02 ± 0.02 %ID/g
[1]; testes, 100 ug, Uptake in testes, 1 h blocked (co-injected with 100 µg [D-Phe6,Leu-NHEt13,des-Met14]Bombesin(6-14))
  tissue uptake at 1 h: 0.18 ± 0.02 %ID/g
[1]; testes, Uptake in testes, 1 h post-injection
  tissue uptake at 1 h: 0.45 ± 0.11 %ID/g
[1]; testes, Uptake in testes
  tissue uptake at 24 h: 0.12 ± 0.02 %ID/g
PC-3 tumor-bearing mice; [4]
  reduction of average pancreas uptake by co-injection of blocker: 45%
  reduction of average tumor uptake by co-injection of blocker: 71%
PC-3 tumor-bearing mice; relative to 1 h uptake
  uptake in PC-3 tumor xenografts cleared within 24 h: Approximately 80%
